How the values were obtained:
TTK (human) [1] = target: TTK (human) (UniProt P33981); test: KINOMEscan competition binding; conditions: for kinase still bound, per cent of control: compound 10.0 µM
GAK (human) = GAK (human) (UniProt O14976); test: KINOMEscan competition binding; conditions: compound 10.0 µM
PLK3 (human) = PLK3 (human) (UniProt Q9H4B4); test: KINOMEscan competition binding; conditions: compound 10.0 µM
DCLK1 (human) = DCLK1 (human) (UniProt O15075); test: KINOMEscan competition binding; conditions: compound 10.0 µM
PLK1 (human) = PLK1 (human) (UniProt P53350); test: KINOMEscan competition binding; conditions: compound 10.0 µM
NLK (human) = NLK (human) (UniProt Q9UBE8); test: KINOMEscan competition binding; conditions: compound 10.0 µM
TNK1 (human) = TNK1 (human) (UniProt Q13470); test: KINOMEscan competition binding; conditions: compound 10.0 µM
ROS1 (human) = ROS1 (human) (UniProt P08922); test: KINOMEscan competition binding; conditions: compound 10.0 µM
MAPK7 (human) = MAPK7 (human) (UniProt Q13164); test: KINOMEscan competition binding; conditions: compound 10.0 µM
PLK4 (human) = PLK4 (human) (UniProt O00444); test: KINOMEscan competition binding; conditions: compound 10.0 µM
PIK3C2B (human) = PIK3C2B (human) (UniProt O00750); test: KINOMEscan competition binding; conditions: compound 10.0 µM
CAMKK2 (human) = CAMKK2 (human) (UniProt Q96RR4); test: KINOMEscan competition binding; conditions: compound 10.0 µM
CAMK2D (human) = CAMK2D (human) (UniProt Q13557); test: KINOMEscan competition binding; conditions: compound 10.0 µM
CAMK2G (human) = CAMK2G (human) (UniProt Q13555); test: KINOMEscan competition binding; conditions: compound 10.0 µM
CDK11A (human) = CDK11A (human) (UniProt Q9UQ88); test: KINOMEscan competition binding; conditions: compound 10.0 µM
TTK (human) [2] = target: TTK (human) (UniProt P33981); test: SelectScreen, TR FRET
PRKD3 (human) = PRKD3 (human) (UniProt O94806); test: KINOMEscan competition binding; conditions: compound 10.0 µM
RPS6KA2 KD2 (human) = RPS6KA2 KD2 (human) (UniProt Q15349); test: KINOMEscan competition binding; conditions: compound 10.0 µM
DCLK2 (human) = DCLK2 (human) (UniProt Q8N568); test: KINOMEscan competition binding; conditions: compound 10.0 µM
DAPK3 (human) = DAPK3 (human) (UniProt O43293); test: KINOMEscan competition binding; conditions: compound 10.0 µM
IGF1R (human) = IGF1R (human) (UniProt P08069); test: KINOMEscan competition binding; conditions: compound 10.0 µM
RPS6KA6 KD2 (human) = RPS6KA6 KD2 (human) (UniProt Q9UK32); test: KINOMEscan competition binding; conditions: compound 10.0 µM
CLK2 (human) = CLK2 (human) (UniProt P49760); test: KINOMEscan competition binding; conditions: compound 10.0 µM
STK33 (human) = STK33 (human) (UniProt Q9BYT3); test: KINOMEscan competition binding; conditions: compound 10.0 µM
FER (human) = FER (human) (UniProt P16591); test: KINOMEscan competition binding; conditions: compound 10.0 µM
ALK (human) = ALK (human) (UniProt Q9UM73); test: KINOMEscan competition binding; conditions: compound 10.0 µM
DAPK1 (human) = DAPK1 (human) (UniProt P53355); test: KINOMEscan competition binding; conditions: compound 10.0 µM
CAMK2A (human) = CAMK2A (human) (UniProt Q9UQM7); test: KINOMEscan competition binding; conditions: compound 10.0 µM
PTK2B (human) = PTK2B (human) (UniProt Q14289); test: KINOMEscan competition binding; conditions: compound 10.0 µM
CLK1 (human) = CLK1 (human) (UniProt P49759); test: KINOMEscan competition binding; conditions: compound 10.0 µM
MYLK (human) = MYLK (human) (UniProt Q15746); test: KINOMEscan competition binding; conditions: compound 10.0 µM
CAMK1D (human) = CAMK1D (human) (UniProt Q8IU85); test: KINOMEscan competition binding; conditions: compound 10.0 µM
STK10 (human) = STK10 (human) (UniProt O94804); test: KINOMEscan competition binding; conditions: compound 10.0 µM
SLK (human) = SLK (human) (UniProt Q9H2G2); test: KINOMEscan competition binding; conditions: compound 10.0 µM
RPS6KA1 KD2 (human) = RPS6KA1 KD2 (human) (UniProt Q15418); test: KINOMEscan competition binding; conditions: compound 10.0 µM
[3] = target: JAK1 JH2 pseudokinase (human) (UniProt P23458); test: KINOMEscan competition binding; conditions: compound 10.0 µM
INSRR (human) = INSRR (human) (UniProt P14616); test: KINOMEscan competition binding; conditions: compound 10.0 µM
PTK2 (human) = PTK2 (human) (UniProt Q05397); test: KINOMEscan competition binding; conditions: compound 10.0 µM
[4] = system: EGFR (human), P00533 [P753S; 747-752 del]; test: KINOMEscan competition binding; conditions: compound 10.0 µM
[5] = system: EGFR (human), P00533 [A750P; 747-749 del]; test: KINOMEscan competition binding; conditions: compound 10.0 µM
[6] = system: EGFR (human), P00533 [747-751 del / S ins]; test: KINOMEscan competition binding; conditions: compound 10.0 µM
ULK2 (human) = ULK2 (human) (UniProt Q8IYT8); test: KINOMEscan competition binding; conditions: compound 10.0 µM
[7] = system: EGFR (human), P00533 [G719C; 746-750 del]; test: KINOMEscan competition binding; conditions: compound 10.0 µM
[8] = system: EGFR (human), P00533 [L861Q]; test: KINOMEscan competition binding; conditions: compound 10.0 µM
[9] = system: FLT3 (human), P36888 [D835Y]; test: KINOMEscan competition binding; conditions: compound 10.0 µM
[10] = system: FLT3 (human), P36888 [ITD]; test: KINOMEscan competition binding; conditions: compound 10.0 µM
[11] = system: FLT3 (human), P36888 [N841I]; test: KINOMEscan competition binding; conditions: compound 10.0 µM
MYLK4 (human) = MYLK4 (human) (UniProt Q86YV6); test: KINOMEscan competition binding; conditions: compound 10.0 µM
DCLK3 (human) = DCLK3 (human) (UniProt Q9C098); test: KINOMEscan competition binding; conditions: compound 10.0 µM
[12] = system: FLT3 (human), P36888 [D835H]; test: KINOMEscan competition binding; conditions: compound 10.0 µM
PTK6 (human) = PTK6 (human) (UniProt Q13882); test: KINOMEscan competition binding; conditions: compound 10.0 µM
TNK2 (human) = TNK2 (human) (UniProt Q07912); test: KINOMEscan competition binding; conditions: compound 10.0 µM
[13] = system: ABL1 (human), P00519 [F317I]; test: KINOMEscan competition binding; conditions: compound 10.0 µM
FLT3 (human) = FLT3 (human) (UniProt P36888); test: KINOMEscan competition binding; conditions: compound 10.0 µM
[14] = system: FLT3 (human), P36888 [K663Q]; test: KINOMEscan competition binding; conditions: compound 10.0 µM
PIP5K1A (human) = PIP5K1A (human) (UniProt Q99755); test: KINOMEscan competition binding; conditions: compound 10.0 µM

Sequence of PLK3 (human) (Q9H4B4 whole entry, looked up): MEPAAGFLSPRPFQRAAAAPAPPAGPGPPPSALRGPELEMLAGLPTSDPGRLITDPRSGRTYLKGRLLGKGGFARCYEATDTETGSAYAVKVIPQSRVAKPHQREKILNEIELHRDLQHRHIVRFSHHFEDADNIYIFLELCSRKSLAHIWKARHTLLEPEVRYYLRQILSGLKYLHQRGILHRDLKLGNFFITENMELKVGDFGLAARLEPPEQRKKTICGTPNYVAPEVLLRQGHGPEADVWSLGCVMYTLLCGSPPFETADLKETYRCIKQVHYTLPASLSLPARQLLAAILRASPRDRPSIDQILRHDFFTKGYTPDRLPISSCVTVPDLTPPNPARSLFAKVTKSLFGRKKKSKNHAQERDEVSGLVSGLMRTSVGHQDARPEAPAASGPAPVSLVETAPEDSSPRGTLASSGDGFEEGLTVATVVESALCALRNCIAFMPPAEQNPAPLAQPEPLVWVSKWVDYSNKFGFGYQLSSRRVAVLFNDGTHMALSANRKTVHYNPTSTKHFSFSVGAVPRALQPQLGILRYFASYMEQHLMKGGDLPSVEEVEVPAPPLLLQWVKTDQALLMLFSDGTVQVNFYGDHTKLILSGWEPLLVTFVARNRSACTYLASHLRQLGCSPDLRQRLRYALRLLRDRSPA
Sequence of PLK1 (human) (P53350 whole entry, looked up): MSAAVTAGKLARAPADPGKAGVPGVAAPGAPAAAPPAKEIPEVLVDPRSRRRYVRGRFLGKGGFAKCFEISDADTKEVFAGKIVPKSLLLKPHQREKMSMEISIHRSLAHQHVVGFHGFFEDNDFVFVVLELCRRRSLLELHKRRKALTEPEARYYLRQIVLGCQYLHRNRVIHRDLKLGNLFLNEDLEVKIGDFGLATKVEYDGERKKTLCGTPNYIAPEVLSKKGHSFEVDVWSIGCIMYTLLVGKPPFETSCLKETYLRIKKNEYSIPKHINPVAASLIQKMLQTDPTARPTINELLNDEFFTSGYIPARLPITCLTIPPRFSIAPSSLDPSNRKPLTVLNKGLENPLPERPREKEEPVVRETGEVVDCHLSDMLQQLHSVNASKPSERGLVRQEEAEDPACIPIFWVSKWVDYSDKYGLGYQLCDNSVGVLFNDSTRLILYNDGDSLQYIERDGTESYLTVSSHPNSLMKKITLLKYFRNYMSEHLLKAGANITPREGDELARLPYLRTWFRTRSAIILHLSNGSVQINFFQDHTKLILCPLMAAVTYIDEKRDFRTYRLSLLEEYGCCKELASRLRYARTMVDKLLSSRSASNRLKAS
Sequence of DCLK1 (human) (O15075 whole entry, looked up): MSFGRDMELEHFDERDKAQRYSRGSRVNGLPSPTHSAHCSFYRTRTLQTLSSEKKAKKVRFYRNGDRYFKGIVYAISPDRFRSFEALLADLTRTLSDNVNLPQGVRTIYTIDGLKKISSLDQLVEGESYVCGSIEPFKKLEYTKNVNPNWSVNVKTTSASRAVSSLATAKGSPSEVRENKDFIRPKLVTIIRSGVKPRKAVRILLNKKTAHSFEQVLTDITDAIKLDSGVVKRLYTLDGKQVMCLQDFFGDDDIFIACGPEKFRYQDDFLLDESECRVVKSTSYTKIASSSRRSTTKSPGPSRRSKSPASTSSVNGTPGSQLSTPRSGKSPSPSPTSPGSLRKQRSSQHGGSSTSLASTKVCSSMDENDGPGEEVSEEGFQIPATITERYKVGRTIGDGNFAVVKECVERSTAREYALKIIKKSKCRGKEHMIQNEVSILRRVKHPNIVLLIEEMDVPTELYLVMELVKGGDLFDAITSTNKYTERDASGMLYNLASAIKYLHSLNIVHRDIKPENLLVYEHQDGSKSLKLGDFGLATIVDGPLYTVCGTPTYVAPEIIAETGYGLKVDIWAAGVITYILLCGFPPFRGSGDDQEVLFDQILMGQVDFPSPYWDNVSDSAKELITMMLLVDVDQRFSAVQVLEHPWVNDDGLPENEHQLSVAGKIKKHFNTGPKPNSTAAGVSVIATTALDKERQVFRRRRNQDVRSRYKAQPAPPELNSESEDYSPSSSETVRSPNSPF
Sequence of DCLK2 (human) (Q8N568 whole entry, looked up): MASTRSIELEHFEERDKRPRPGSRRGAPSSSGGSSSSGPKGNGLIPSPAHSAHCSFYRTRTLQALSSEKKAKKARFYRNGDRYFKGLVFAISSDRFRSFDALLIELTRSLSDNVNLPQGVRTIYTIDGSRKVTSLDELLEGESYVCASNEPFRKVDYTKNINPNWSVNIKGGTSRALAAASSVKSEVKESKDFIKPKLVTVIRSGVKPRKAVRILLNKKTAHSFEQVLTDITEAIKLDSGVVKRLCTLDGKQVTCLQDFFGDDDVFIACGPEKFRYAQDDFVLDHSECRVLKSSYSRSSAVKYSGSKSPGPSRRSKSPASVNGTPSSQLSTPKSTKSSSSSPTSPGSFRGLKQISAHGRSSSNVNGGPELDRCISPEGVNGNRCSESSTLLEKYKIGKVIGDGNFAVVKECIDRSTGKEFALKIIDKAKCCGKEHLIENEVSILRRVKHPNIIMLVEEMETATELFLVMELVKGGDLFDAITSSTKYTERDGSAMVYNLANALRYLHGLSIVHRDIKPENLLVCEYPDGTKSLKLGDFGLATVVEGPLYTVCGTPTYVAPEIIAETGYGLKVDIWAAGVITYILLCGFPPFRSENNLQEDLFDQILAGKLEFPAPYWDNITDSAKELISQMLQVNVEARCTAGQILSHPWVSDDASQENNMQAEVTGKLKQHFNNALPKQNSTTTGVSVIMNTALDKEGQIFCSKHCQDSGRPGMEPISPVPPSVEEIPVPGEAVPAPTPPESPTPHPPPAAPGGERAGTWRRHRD
Sequence of GAK (human) (O14976 whole entry, looked up): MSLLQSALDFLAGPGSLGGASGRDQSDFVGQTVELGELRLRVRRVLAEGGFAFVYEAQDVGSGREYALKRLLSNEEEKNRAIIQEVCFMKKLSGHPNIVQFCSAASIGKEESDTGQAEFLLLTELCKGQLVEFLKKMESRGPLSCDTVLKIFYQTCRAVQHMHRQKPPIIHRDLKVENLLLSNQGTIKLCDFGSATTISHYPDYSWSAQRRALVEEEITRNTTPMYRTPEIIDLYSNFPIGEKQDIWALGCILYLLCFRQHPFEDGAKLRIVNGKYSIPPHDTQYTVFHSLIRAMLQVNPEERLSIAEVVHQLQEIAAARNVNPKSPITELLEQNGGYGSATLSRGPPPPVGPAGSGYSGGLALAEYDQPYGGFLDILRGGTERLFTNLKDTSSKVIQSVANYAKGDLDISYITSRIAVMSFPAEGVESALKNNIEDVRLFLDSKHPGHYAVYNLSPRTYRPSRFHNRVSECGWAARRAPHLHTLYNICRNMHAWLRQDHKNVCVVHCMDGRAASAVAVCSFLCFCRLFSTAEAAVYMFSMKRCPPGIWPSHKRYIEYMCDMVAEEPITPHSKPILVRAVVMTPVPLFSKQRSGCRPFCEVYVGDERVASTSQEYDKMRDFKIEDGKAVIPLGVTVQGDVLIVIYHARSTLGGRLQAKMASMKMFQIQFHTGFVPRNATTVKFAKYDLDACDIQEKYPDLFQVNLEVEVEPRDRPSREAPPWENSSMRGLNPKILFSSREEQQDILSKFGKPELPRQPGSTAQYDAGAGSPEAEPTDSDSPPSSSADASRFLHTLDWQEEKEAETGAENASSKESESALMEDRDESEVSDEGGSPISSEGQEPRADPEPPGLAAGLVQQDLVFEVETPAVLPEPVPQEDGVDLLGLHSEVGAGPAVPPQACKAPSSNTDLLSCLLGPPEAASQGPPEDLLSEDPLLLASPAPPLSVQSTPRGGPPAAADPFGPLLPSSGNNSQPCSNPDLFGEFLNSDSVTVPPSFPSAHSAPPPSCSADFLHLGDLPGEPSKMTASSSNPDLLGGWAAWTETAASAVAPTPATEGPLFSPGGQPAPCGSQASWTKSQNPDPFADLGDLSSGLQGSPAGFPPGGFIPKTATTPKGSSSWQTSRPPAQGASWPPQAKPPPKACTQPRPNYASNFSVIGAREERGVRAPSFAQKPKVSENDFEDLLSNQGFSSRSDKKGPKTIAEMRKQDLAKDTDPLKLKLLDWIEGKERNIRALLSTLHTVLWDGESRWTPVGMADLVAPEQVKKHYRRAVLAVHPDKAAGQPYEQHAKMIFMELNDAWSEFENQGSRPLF
Sequence of CAMKK2 (human) (Q96RR4 whole entry, looked up): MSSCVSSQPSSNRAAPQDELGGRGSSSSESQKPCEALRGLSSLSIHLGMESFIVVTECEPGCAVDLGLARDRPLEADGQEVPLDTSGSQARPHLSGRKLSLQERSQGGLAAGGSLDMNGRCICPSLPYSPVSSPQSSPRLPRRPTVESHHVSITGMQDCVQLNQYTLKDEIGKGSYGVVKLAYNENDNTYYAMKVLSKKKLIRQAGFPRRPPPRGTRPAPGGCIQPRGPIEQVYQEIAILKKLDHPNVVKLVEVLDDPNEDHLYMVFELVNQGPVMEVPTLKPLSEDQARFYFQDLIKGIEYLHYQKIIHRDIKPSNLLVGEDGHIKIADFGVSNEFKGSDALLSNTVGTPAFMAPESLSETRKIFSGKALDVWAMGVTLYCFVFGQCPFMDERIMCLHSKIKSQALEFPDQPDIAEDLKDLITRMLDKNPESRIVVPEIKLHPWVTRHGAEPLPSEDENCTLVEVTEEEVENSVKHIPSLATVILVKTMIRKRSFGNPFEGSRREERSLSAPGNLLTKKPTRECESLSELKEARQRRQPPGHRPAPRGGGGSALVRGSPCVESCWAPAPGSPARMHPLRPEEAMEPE
Sequence of MYLK4 (human) (Q86YV6 whole entry, looked up): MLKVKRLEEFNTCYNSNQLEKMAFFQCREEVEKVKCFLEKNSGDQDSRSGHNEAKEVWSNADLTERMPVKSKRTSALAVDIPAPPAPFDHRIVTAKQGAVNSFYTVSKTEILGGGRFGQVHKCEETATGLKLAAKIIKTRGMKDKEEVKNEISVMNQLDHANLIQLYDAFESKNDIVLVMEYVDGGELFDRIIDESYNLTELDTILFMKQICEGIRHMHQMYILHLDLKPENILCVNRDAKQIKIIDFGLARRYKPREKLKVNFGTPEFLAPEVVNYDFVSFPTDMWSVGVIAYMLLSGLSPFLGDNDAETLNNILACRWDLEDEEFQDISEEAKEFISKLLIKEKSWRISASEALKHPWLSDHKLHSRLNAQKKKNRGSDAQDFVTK

SMILES | kinase still bound, per cent of control (TTK (human) [1]) [%] | kinase still bound, per cent of control (GAK (human)) [%] | kinase still bound, per cent of control (PLK3 (human)) [%] | kinase still bound, per cent of control (DCLK1 (human)) [%] | kinase still bound, per cent of control (PLK1 (human)) [%] | kinase still bound, per cent of control (MAPK7 (human)) [%] | kinase still bound, per cent of control (PLK4 (human)) [%] | kinase still bound, per cent of control (CAMKK2 (human)) [%] | kinase still bound, per cent of control (CAMK2G (human)) [%] | kinase still bound, per cent of control (RPS6KA2 KD2 (human)) [%] | kinase still bound, per cent of control (DCLK2 (human)) [%] | kinase still bound, per cent of control (IGF1R (human)) [%] | kinase still bound, per cent of control (RPS6KA6 KD2 (human)) [%] | kinase still bound, per cent of control (STK33 (human)) [%] | kinase still bound, per cent of control (ALK (human)) [%] | kinase still bound, per cent of control (PTK2B (human)) [%] | kinase still bound, per cent of control (MYLK (human)) [%] | kinase still bound, per cent of control (SLK (human)) [%] | kinase still bound, per cent of control (RPS6KA1 KD2 (human)) [%] | kinase still bound, per cent of control (INSRR (human)) [%] | other results
COc1cc(N2CCC(C(N)=O)CC2)ccc1Nc1ncc2c(n1)N(C1CCCC1)[C@@H]1CCC[C@@H]1C(=O)N2C | 10 | 12 | 4.3 | 15 | 19 | 0.1 | 28 |  |  |  |  |  |  |  |  |  |  |  |  |  | kinase still bound, per cent of control (NLK (human)): 31%; kinase still bound, per cent of control (TNK1 (human)): 18%; kinase still bound, per cent of control (ROS1 (human)): 31%
Nc1cnc(/C=C/c2ccc(-c3ccc(S(N)(=O)=O)cc3)o2)cn1 |  |  |  |  |  |  |  | 28 | 34 |  |  |  |  |  |  |  |  |  |  |  | kinase still bound, per cent of control (PIK3C2B (human)): 31%; kinase still bound, per cent of control (CAMK2D (human)): 31%
CNS(=O)(=O)c1ccc(-c2ccc(C=C3C(=O)NC(=O)NC3=O)o2)cc1 |  |  |  |  |  |  |  |  |  |  |  |  |  |  |  |  |  |  |  |  | residual activity (CDK11A (human)): 28%
COc1cc(C(=O)NC2CCN(C)CC2)ccc1Nc1ncc2c(n1)N(C1CCCC1)C(C)CC(=O)N2C (configuration not stated) | 4.6 | 3.8 | 0 | 4 | 19 |  |  | 24 | 34 | 5.8 | 19 | 32 | 12 | 3.6 | 6.2 | 13 | 2.8 | 1.4 | 22 | 26 | IC50 (TTK (human) [2]): 5.04 µM; kinase still bound, per cent of control (PRKD3 (human)): 32%; Kd (TTK (human) [1]): 1.43 µM; kinase still bound, per cent of control (DAPK3 (human)): 17%; kinase still bound, per cent of control (CLK2 (human)): 6.2%; kinase still bound, per cent of control (FER (human)): 31%; kinase still bound, per cent of control (DAPK1 (human)): 26%; kinase still bound, per cent of control (CAMK2A (human)): 21%; kinase still bound, per cent of control (CLK1 (human)): 18%; kinase still bound, per cent of control (CAMK1D (human)): 17%; kinase still bound, per cent of control (STK10 (human)): 29%; kinase still bound, per cent of control [3]: 22%; kinase still bound, per cent of control (PTK2 (human)): 0.4%
COc1cc(N2CCC(N3CCN(C)CC3)CC2)ccc1Nc1ncc2c(n1)N(C1CCCC1)C(C)CC(=O)N2C (configuration not stated) | 2 | 1.6 | 5.9 | 5.2 | 7.2 |  | 26 | 33 |  | 16 | 30 | 29 | 33 | 9 | 5 | 4.2 | 11 | 5.6 |  | 33 | kinase still bound, per cent of control [4]: 34%; kinase still bound, per cent of control [5]: 27%; kinase still bound, per cent of control [6]: 34%; kinase still bound, per cent of control (ULK2 (human)): 24%; kinase still bound, per cent of control [7]: 32%; kinase still bound, per cent of control [8]: 30%; kinase still bound, per cent of control (PTK2 (human)): 1.2%
CC(C)Oc1cc(N2CCN(C)CC2)ccc1Nc1ncc2c(n1)N(C)c1ccccc1C(=O)N2 |  |  |  | 1.2 |  | 29 |  |  |  |  | 5.3 |  | 21 |  |  |  |  |  | 14 |  | kinase still bound, per cent of control [9]: 2.2%; kinase still bound, per cent of control [10]: 2.4%; kinase still bound, per cent of control [11]: 0.6%; kinase still bound, per cent of control (MYLK4 (human)): 2.1%; kinase still bound, per cent of control (DCLK3 (human)): 8.1%; kinase still bound, per cent of control [12]: 14%; kinase still bound, per cent of control (PTK6 (human)): 2.6%; kinase still bound, per cent of control (TNK2 (human)): 6.5%; kinase still bound, per cent of control [13]: 26%; kinase still bound, per cent of control (FLT3 (human)): 10%; kinase still bound, per cent of control [14]: 10%; kinase still bound, per cent of control (PIP5K1A (human)): 22%

Source: the kinase profiling compilation of Christmann-Franck et al. (2016)
